The values below come from US20200060276A1, “THIAZOLE COMPOUND AND HERBICIDE” (OAT Agrio Co., Ltd., priority 2017, published 2020).

What all share (assay type): in vivo
The subject of one assay is Monochoria vaginalis. The assay can be described thus: Test for Herbicidal Effect in Flooding Treatment (#1), MONVA. The following applies: flooding treatment at seeding, dose 2 kg/ha, visual observation on day 21. In outline:
(§1)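 Visual scores from 0 (<10% inhibition) to 5 (≥90% or complete withering) were taken 21 days after treatment of glasshouse-grown plants. Seeds were sown in soil flooded for 24 h beforehand, and compound was applied dropwise onto the surface at 2 kg/ha as an acetone solution diluted in water with Tween 80.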

Assay [1] relates to Echinochloa crus-galli (L.) P. Beauv. var. formosensis Ohwi. In words: Test for Herbicidal Effect in Flooding Treatment (#2), ECHDG at 2-2.5 leaf stage. The note with it: flooding treatment at 2-2.5 leaf stage, dose 0.2 kg/ha, visual observation on day 21. Summed up:
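Flooded muddy soil was seeded with the weed, and at 2–2.5 leaf stage compound in acetone/Tween 80 water was dropped on the water surface at 0.2 kg/ha. Plants were kept in a glasshouse and scored visually on day 21 from 0 (<10% growth inhibition) to 5 (≥90% or complete withering).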

For assay [2] the test system is unchanged. In words: Test for Herbicidal Effect in Flooding Treatment (#1), ECHDG. The note with it: flooding treatment at seeding, dose 2 kg/ha, visual observation on day 21. Summed up: as §1
Another assay relates to Scirpus juncoides. The assay can be described thus: Test for Herbicidal Effect in Flooding Treatment (#1), SCIJU. The note with it: flooding treatment at seeding, dose 2 kg/ha, visual observation on day 21. In outline: as §1

In the case of `[2H]C([2H])(c1c(F)cccc1OC(F)F)S(=O)(=O)c1ncc(Cl)s1` [Compound 1C-131], the “MONVA #1 herbicidal effect (growth inhibition grade)” value in the assay with Monochoria vaginalis is reported as 5 (Growth inhibition effect is equal to or greater than 90%, or complete withering is achieved). The “ECHDG (2-2.5L) #2 herbicidal effect (growth inhibition grade)” value in assay [1] is given as 5 (Growth inhibition effect is equal to or greater than 90%, or complete withering is achieved). Further, in assay [2], the “ECHDG #1 herbicidal effect (growth inhibition grade)” value is 5 (Growth inhibition effect is equal to or greater than 90%, or complete withering is achieved). Besides, in the assay on Scirpus juncoides, the “SCIJU #1 herbicidal effect (growth inhibition grade)” value is recorded as 5 (Growth inhibition effect is equal to or greater than 90%, or complete withering is achieved).
For the compound `[2H]C([2H])(c1c(Cl)cccc1OC(F)F)S(=O)(=O)c1ncc(Cl)s1` [Compound 1C-132], the “MONVA #1 herbicidal effect (growth inhibition grade)” value in the assay with Monochoria vaginalis is reported as 5 (Growth inhibition effect is equal to or greater than 90%, or complete withering is achieved). In addition, the “ECHDG (2-2.5L) #2 herbicidal effect (growth inhibition grade)” value in assay [1] was 5 (Growth inhibition effect is equal to or greater than 90%, or complete withering is achieved). Besides, in assay [2], the “ECHDG #1 herbicidal effect (growth inhibition grade)” value is 5 (Growth inhibition effect is equal to or greater than 90%, or complete withering is achieved). In the assay with Scirpus juncoides, the “SCIJU #1 herbicidal effect (growth inhibition grade)” value is recorded as 5 (Growth inhibition effect is equal to or greater than 90%, or complete withering is achieved).
For the compound `[2H]C([2H])(c1c(Cl)cccc1OC(F)(F)F)S(=O)(=O)c1ncc(Cl)s1` [Compound 1C-133], the “MONVA #1 herbicidal effect (growth inhibition grade)” value in the assay with Monochoria vaginalis is 5 (Growth inhibition effect is equal to or greater than 90%, or complete withering is achieved). In assay [1], the “ECHDG (2-2.5L) #2 herbicidal effect (growth inhibition grade)” value is listed as 5 (Growth inhibition effect is equal to or greater than 90%, or complete withering is achieved). Further, the “ECHDG #1 herbicidal effect (growth inhibition grade)” value in assay [2] is 5 (Growth inhibition effect is equal to or greater than 90%, or complete withering is achieved). The “SCIJU #1 herbicidal effect (growth inhibition grade)” value in the assay with Scirpus juncoides is listed as 5 (Growth inhibition effect is equal to or greater than 90%, or complete withering is achieved).
Regarding `[2H]C([2H])(c1ccccc1OCC(F)(F)F)S(=O)(=O)c1ncc(Cl)s1` [Compound 1C-134], in the assay with Monochoria vaginalis, the “MONVA #1 herbicidal effect (growth inhibition grade)” value was 5 (Growth inhibition effect is equal to or greater than 90%, or complete withering is achieved). In assay [1], the “ECHDG (2-2.5L) #2 herbicidal effect (growth inhibition grade)” value is 5 (Growth inhibition effect is equal to or greater than 90%, or complete withering is achieved). Moreover, in assay [2], the “ECHDG #1 herbicidal effect (growth inhibition grade)” value was 5 (Growth inhibition effect is equal to or greater than 90%, or complete withering is achieved). Further, in the assay with Scirpus juncoides, the “SCIJU #1 herbicidal effect (growth inhibition grade)” value is given as 5 (Growth inhibition effect is equal to or greater than 90%, or complete withering is achieved).
For `[2H]C([2H])(c1c(Cl)cccc1OCC(F)(F)F)S(=O)(=O)c1ncc(Cl)s1` [Compound 1C-135], the “MONVA #1 herbicidal effect (growth inhibition grade)” value in the assay on Monochoria vaginalis was 5 (Growth inhibition effect is equal to or greater than 90%, or complete withering is achieved). Moreover, in assay [1], the “ECHDG (2-2.5L) #2 herbicidal effect (growth inhibition grade)” value is on record as 5 (Growth inhibition effect is equal to or greater than 90%, or complete withering is achieved). In assay [2], the “ECHDG #1 herbicidal effect (growth inhibition grade)” value is 5 (Growth inhibition effect is equal to or greater than 90%, or complete withering is achieved). Further, the “SCIJU #1 herbicidal effect (growth inhibition grade)” value in the assay with Scirpus juncoides is on record as 5 (Growth inhibition effect is equal to or greater than 90%, or complete withering is achieved).
Regarding `[2H]C([2H])(c1c(Cl)ccc(OC)c1F)S(=O)(=O)c1ncc(Cl)s1` [Compound 1C-136], the “MONVA #1 herbicidal effect (growth inhibition grade)” value with Monochoria vaginalis is 5 (Growth inhibition effect is equal to or greater than 90%, or complete withering is achieved). Besides, the “ECHDG (2-2.5L) #2 herbicidal effect (growth inhibition grade)” value in assay [1] is 5 (Growth inhibition effect is equal to or greater than 90%, or complete withering is achieved). Further, the “ECHDG #1 herbicidal effect (growth inhibition grade)” value in assay [2] was 5 (Growth inhibition effect is equal to or greater than 90%, or complete withering is achieved). The “SCIJU #1 herbicidal effect (growth inhibition grade)” value in the assay with Scirpus juncoides is 5 (Growth inhibition effect is equal to or greater than 90%, or complete withering is achieved).
As for `[2H]C([2H])(c1c(Cl)ccc(OC)c1Cl)S(=O)(=O)c1ncc(Cl)s1` [Compound 1C-137], the “MONVA #1 herbicidal effect (growth inhibition grade)” value in the assay with Monochoria vaginalis is 5 (Growth inhibition effect is equal to or greater than 90%, or complete withering is achieved). Moreover, the “ECHDG (2-2.5L) #2 herbicidal effect (growth inhibition grade)” value in assay [1] is on record as 5 (Growth inhibition effect is equal to or greater than 90%, or complete withering is achieved). In addition, the “ECHDG #1 herbicidal effect (growth inhibition grade)” value in assay [2] is 5 (Growth inhibition effect is equal to or greater than 90%, or complete withering is achieved). Moreover, the “SCIJU #1 herbicidal effect (growth inhibition grade)” value in the assay with Scirpus juncoides is reported as 5 (Growth inhibition effect is equal to or greater than 90%, or complete withering is achieved).
As for `CCOc1ccc(Cl)cc1C(F)(F)S(=O)(=O)c1ncc(Cl)s1` [Compound 1C-138], the “MONVA #1 herbicidal effect (growth inhibition grade)” value in the assay on Monochoria vaginalis is on record as 5 (Growth inhibition effect is equal to or greater than 90%, or complete withering is achieved). Besides, the “ECHDG (2-2.5L) #2 herbicidal effect (growth inhibition grade)” value in assay [1] was 3 (Growth inhibition effect equal to or greater than 50%, and less than 70%). The “ECHDG #1 herbicidal effect (growth inhibition grade)” value in assay [2] is listed as 5 (Growth inhibition effect is equal to or greater than 90%, or complete withering is achieved). The “SCIJU #1 herbicidal effect (growth inhibition grade)” value with Scirpus juncoides is given as 5 (Growth inhibition effect is equal to or greater than 90%, or complete withering is achieved).
Turning to `CC(C)(c1c(F)cccc1OCC(F)F)S(=O)(=O)c1ncc(Cl)s1` [Compound 1C-143], the “MONVA #1 herbicidal effect (growth inhibition grade)” value with Monochoria vaginalis is on record as 5 (Growth inhibition effect is equal to or greater than 90%, or complete withering is achieved). For the same compound, in assay [1], the “ECHDG (2-2.5L) #2 herbicidal effect (growth inhibition grade)” value was 4 (Growth inhibition effect is equal to or greater than 70%, and less than 90%). Besides, the “ECHDG #1 herbicidal effect (growth inhibition grade)” value in assay [2] is on record as 5 (Growth inhibition effect is equal to or greater than 90%, or complete withering is achieved). In addition, the “SCIJU #1 herbicidal effect (growth inhibition grade)” value in the assay on Scirpus juncoides was 5 (Growth inhibition effect is equal to or greater than 90%, or complete withering is achieved).
Consider `CC(=O)C(C(C)=O)(c1c(F)cccc1OC(F)F)S(=O)(=O)c1ncc(Cl)s1` [Compound 1C-147], for which, in the assay with Monochoria vaginalis, the “MONVA #1 herbicidal effect (growth inhibition grade)” value is reported as 5 (Growth inhibition effect is equal to or greater than 90%, or complete withering is achieved). The “ECHDG (2-2.5L) #2 herbicidal effect (growth inhibition grade)” value in assay [1] is 5 (Growth inhibition effect is equal to or greater than 90%, or complete withering is achieved). In addition, the “ECHDG #1 herbicidal effect (growth inhibition grade)” value in assay [2] was 5 (Growth inhibition effect is equal to or greater than 90%, or complete withering is achieved). In addition, the “SCIJU #1 herbicidal effect (growth inhibition grade)” value in the assay with Scirpus juncoides is reported as 5 (Growth inhibition effect is equal to or greater than 90%, or complete withering is achieved).
Consider `CC(c1c(F)cccc1OCC(F)(F)C(F)F)S(=O)(=O)c1ncc(Cl)s1` (centres unmarked) [Compound 1C-148], for which the “MONVA #1 herbicidal effect (growth inhibition grade)” value with Monochoria vaginalis is 5 (Growth inhibition effect is equal to or greater than 90%, or complete withering is achieved). For the same compound, the “ECHDG (2-2.5L) #2 herbicidal effect (growth inhibition grade)” value in assay [1] is given as 5 (Growth inhibition effect is equal to or greater than 90%, or complete withering is achieved). Moreover, the “ECHDG #1 herbicidal effect (growth inhibition grade)” value in assay [2] is on record as 5 (Growth inhibition effect is equal to or greater than 90%, or complete withering is achieved). Moreover, the “SCIJU #1 herbicidal effect (growth inhibition grade)” value in the assay with Scirpus juncoides is reported as 5 (Growth inhibition effect is equal to or greater than 90%, or complete withering is achieved).
Regarding `O=S(=O)(Cc1c(F)cccc1OC(F)F)c1ncc(Br)s1` [Compound 1C-153], the “MONVA #1 herbicidal effect (growth inhibition grade)” value in the assay on Monochoria vaginalis is 5 (Growth inhibition effect is equal to or greater than 90%, or complete withering is achieved). Further, in assay [1], the “ECHDG (2-2.5L) #2 herbicidal effect (growth inhibition grade)” value was 5 (Growth inhibition effect is equal to or greater than 90%, or complete withering is achieved). The “ECHDG #1 herbicidal effect (growth inhibition grade)” value in assay [2] was 5 (Growth inhibition effect is equal to or greater than 90%, or complete withering is achieved). Moreover, the “SCIJU #1 herbicidal effect (growth inhibition grade)” value in the assay with Scirpus juncoides is recorded as 5 (Growth inhibition effect is equal to or greater than 90%, or complete withering is achieved).
For the compound `O=S(=O)(Cc1c(Cl)cccc1OC(F)F)c1ncc(Br)s1` [Compound 1C-154], the “MONVA #1 herbicidal effect (growth inhibition grade)” value in the assay with Monochoria vaginalis was 5 (Growth inhibition effect is equal to or greater than 90%, or complete withering is achieved). In assay [1], the “ECHDG (2-2.5L) #2 herbicidal effect (growth inhibition grade)” value was 5 (Growth inhibition effect is equal to or greater than 90%, or complete withering is achieved). In addition, the “ECHDG #1 herbicidal effect (growth inhibition grade)” value in assay [2] is on record as 5 (Growth inhibition effect is equal to or greater than 90%, or complete withering is achieved). The “SCIJU #1 herbicidal effect (growth inhibition grade)” value with Scirpus juncoides is 5 (Growth inhibition effect is equal to or greater than 90%, or complete withering is achieved).
`O=S(=O)(Cc1c(F)ccc(F)c1OC(F)F)c1ncc(Br)s1` [Compound 1C-155]: in the assay on Monochoria vaginalis, the “MONVA #1 herbicidal effect (growth inhibition grade)” value is given as 5 (Growth inhibition effect is equal to or greater than 90%, or complete withering is achieved). For the same compound, in assay [1], the “ECHDG (2-2.5L) #2 herbicidal effect (growth inhibition grade)” value was 5 (Growth inhibition effect is equal to or greater than 90%, or complete withering is achieved). The “ECHDG #1 herbicidal effect (growth inhibition grade)” value in assay [2] was 5 (Growth inhibition effect is equal to or greater than 90%, or complete withering is achieved). Also, in the assay with Scirpus juncoides, the “SCIJU #1 herbicidal effect (growth inhibition grade)” value was 5 (Growth inhibition effect is equal to or greater than 90%, or complete withering is achieved).
